Source: PubChem BioAssay (NCI)
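Here, GI50 denotes the concentration required for 50% inhibition of growth. TGI marks complete inhibition of growth.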

How the values were obtained:
Assay in all cases: inhibition of tumour cell growth, NCI panel, 384-well format
RXF 393 renal = system: RXF 393 renal
MDA-MB-231 breast = system: MDA-MB-231 breast
COLO 205 colon = system: COLO 205 colon
NCI-H322M lung = system: NCI-H322M lung
M14 melanoma = system: M14 melanoma
SF-539 CNS = system: SF-539 CNS
OVCAR-8 ovarian = system: OVCAR-8 ovarian
SF-295 CNS = system: SF-295 CNS
SK-MEL-28 melanoma = system: SK-MEL-28 melanoma
HT29 colon = system: HT29 colon
NCI-H23 lung = system: NCI-H23 lung
SR leukemia = system: SR leukemia
KM12 colon = system: KM12 colon
CAKI-1 renal = system: CAKI-1 renal
MALME-3M melanoma = system: MALME-3M melanoma
HL-60(TB) leukemia = system: HL-60(TB) leukemia
BT-549 breast = system: BT-549 breast
SF-268 CNS = system: SF-268 CNS
HOP-92 NSCLC = system: HOP-92 NSCLC
NCI-H226 lung = system: NCI-H226 lung
A549 NSCLC = system: A549 NSCLC
RPMI-8226 leukemia = system: RPMI-8226 leukemia
HS 578T breast = system: HS 578T breast
SW-620 colon = system: SW-620 colon
MCF7 breast = system: MCF7 breast
SNB-75 CNS = system: SNB-75 CNS
HOP-62 NSCLC = system: HOP-62 NSCLC

**Q.** What does the source list for `Cc1cc(Nc2ncc(F)c(N[C@H]3[C@@H](C(N)=O)[C@@H]4C=C[C@H]3C4)n2)ccc1N1CCN(C)CC1`?
**A.** GI50 (RXF 393 renal): 30.5 nM; TGI (RXF 393 renal): 294 nM; GI50 (MDA-MB-231 breast): 26 nM; TGI (MDA-MB-231 breast): 1570 nM; GI50 (COLO 205 colon): < 10 nM; TGI (COLO 205 colon): < 10 nM; GI50 (NCI-H322M lung): 766 nM; TGI (NCI-H322M lung): 2260 nM; GI50 (M14 melanoma): < 10 nM; TGI (M14 melanoma): 2100 nM; GI50 (SF-539 CNS): 24.8 nM; TGI (SF-539 CNS): 138 nM; GI50 (OVCAR-8 ovarian): 88 nM; TGI (OVCAR-8 ovarian): 385 nM; GI50 (SF-295 CNS): 21.8 nM; TGI (SF-295 CNS): 276 nM; GI50 (SK-MEL-28 melanoma): 1210 nM; TGI (SK-MEL-28 melanoma): 2550 nM; GI50 (HT29 colon): 44.4 nM; TGI (HT29 colon): 1140 nM; GI50 (NCI-H23 lung): 35.9 nM; TGI (NCI-H23 lung): 1160 nM; GI50 (SR leukemia): < 10 nM; TGI (SR leukemia): < 10 nM; GI50 (KM12 colon): 173 nM; TGI (KM12 colon): 1500 nM; GI50 (CAKI-1 renal): < 10 nM; TGI (CAKI-1 renal): 1200 nM; GI50 (MALME-3M melanoma): < 10 nM; TGI (MALME-3M melanoma): 1340 nM; GI50 (HL-60(TB) leukemia): < 10 nM; TGI (HL-60(TB) leukemia): 1030 nM; GI50 (BT-549 breast): 14.6 nM; TGI (BT-549 breast): 51.5 nM; GI50 (SF-268 CNS): 73.5 nM; TGI (SF-268 CNS): 866 nM; GI50 (HOP-92 NSCLC): 15.6 nM; TGI (HOP-92 NSCLC): 184 nM; GI50 (NCI-H226 lung): 25.7 nM; TGI (NCI-H226 lung): 661 nM; GI50 (A549 NSCLC): 20.1 nM; TGI (A549 NSCLC): 3.25 µM; GI50 (RPMI-8226 leukemia): < 10 nM; TGI (RPMI-8226 leukemia): < 10 nM; GI50 (HS 578T breast): 12.6 nM; TGI (HS 578T breast): 95.6 nM; GI50 (SW-620 colon): 26.2 nM; TGI (SW-620 colon): 1500 nM; GI50 (MCF7 breast): 436 nM; TGI (MCF7 breast): 2140 nM; GI50 (SNB-75 CNS): 15.2 nM; TGI (SNB-75 CNS): 119 nM; GI50 (HOP-62 NSCLC): 25 nM; TGI (HOP-62 NSCLC): 237 nM
